Tested on: human embryonic stem cells
Experiment: Metabolite profiling (LC/ESI-TOF mass spectrometry) of extracellular media of hESCs treated with alcohol
Format: cell-based
Settings: ETOH 0.3, 24 H
Excerpt: Binned masses were annotated in silico by querying the neutral masses in several different databases. These databases included Metlin, Biological Magnetic Resonance Data Bank (BMRB), NIST Chemistry WebBook, and the Human Metabolome Database. A mass was considered identified when its neutral mass was within 10 ppm of a known compound annotated in one of the databases listed above.

For `CCO` [ETOH], the “Fold: 5-Methoxytryptophan, mass 234.125, RT 47.0879” value was −1.632 fold, the “Fold: GABA analogue, mass 171.1244, RT 26.70635” value was 3.755 fold and the “Fold: Hexylamine, mass 101.1201, RT 10.21225” value was 2.192 fold. For the same compound, the “Fold: N-Methyl-2-pyrrolidinone, mass 99.0689, RT 15.48433” value was 1.468 fold, the “Fold: Unknown, mass 83.0372, RT 85.57399” value was 2.472 fold and the “Fold: Unknown, mass 99.1043, RT 52.01225” value was 3.331 fold. For the same compound, the “Fold: Unknown, mass 130.9541, RT 88.64043” value was 2.025 fold, the “Fold: Unknown, mass 148.0052, RT 3.958833” value was −1.73 fold and the “Fold: Unknown, mass 153.0811, RT 27.80141” value was −1.6976 fold. For the same compound, the “Fold: Unknown, mass 161.0805, RT 14.22357” value was −6.435 fold, the “Fold: Unknown, mass 178.5546, RT 28.52393” value was −2.764 fold and the “Fold: Unknown, mass 194.0836, RT 22.61355” value was −1.703 fold. The “Fold: Unknown, mass 222.0401, RT 27.57188” value was −2.112 fold, the “Fold: Unknown, mass 223.119, RT 13.6845” value was −2.74 fold and the “Fold: Unknown, mass 229.2025, RT 32.9941” value was −1.377 fold. The “Fold: Unknown, mass 237.0041, RT 3.673694” value was 2.989 fold, the “Fold: Unknown, mass 239.9592, RT 5.176232” value was 1.64 fold and the “Fold: Unknown, mass 267.2543, RT 40.75868” value was −1.496 fold. For the same compound, the “Fold: Unknown, mass 271.9364, RT 4.86619” value was 4.07 fold, the “Fold: Unknown, mass 275.1193, RT 22.86183” value was −2.237 fold and the “Fold: Unknown, mass 288.2632, RT 75.76147” value was 1.969 fold. The “Fold: Unknown, mass 294.1531, RT 24.21651” value was −1.892 fold, the “Fold: Unknown, mass 298.1537, RT 66.35884” value was 3.758 fold and the “Fold: Unknown, mass 299.1929, RT 19.66398” value was −1.571 fold. The “Fold: Unknown, mass 303.8875, RT 4.954547” value was 2.07 fold, the “Fold: Unknown, mass 313.199, RT 44.09424” value was 2.292 fold and the “Fold: Unknown, mass 324.1666, RT 30.19245” value was −1.593 fold. The “Fold: Unknown, mass 337.2012, RT 8.542672” value was 1.287 fold, the “Fold: Unknown, mass 340.9252, RT 5.033976” value was −1.836 fold and the “Fold: Unknown, mass 342.1482, RT 68.02448” value was −1.853 fold. For the same compound, the “Fold: Unknown, mass 360.1321, RT 18.50245” value was −2.289 fold, the “Fold: Unknown, mass 362.2787, RT 83.72506” value was −2.542 fold and the “Fold: Unknown, mass 378.2956, RT 41.28494” value was 1.636 fold. For the same compound, the “Fold: Unknown, mass 393.1889, RT 15.90129” value was −1.511 fold, the “Fold: Unknown, mass 440.0284, RT 54.46495” value was 2.51 fold and the “Fold: Unknown, mass 444.2237, RT 51.58546” value was 2.242 fold. For the same compound, the “Fold, Unknown metabolite, Mass 820.8181” value (retention time 4.613879) was −1.851, the “Fold, Unknown metabolite, Mass 711.8344” value (retention time 4.826824) was −2.256 and the “Fold, Unknown metabolite, Mass 913.8074” value (retention time 5.217833) was −1.885. The “Fold, Unknown metabolite, Mass 888.8041” value (retention time 5.259716) was 1.222, the “Fold, Unknown metabolite, Mass 922.0048” value (retention time 5.387775) was −2.755 and the “Fold, Unknown metabolite, Mass 555.8505” value (retention time 5.742094) was −1.518. The “Fold, metabolite Ethanesulfonic acid, Mass 579.2519” value (retention time 5.903169) was −1.48, the “Fold, metabolite Oxidized glutathione, Mass 612.1509” value (retention time 8.056862) was −1.595 and the “Fold, Unknown metabolite, Mass 485.204” value (retention time 10.8217) was 2.038. For the same compound, the “Fold, Unknown metabolite, Mass 482.1942” value (retention time 10.82859) was −1.528, the “Fold, Unknown metabolite, Mass 666.3836” value (retention time 16.3338) was −1.371 and the “Fold, metabolite L-Urobilinogen, Mass 596.3543” value (retention time 25.14927) was 1.835. For the same compound, the “Fold, Unknown metabolite, Mass 464.225” value (retention time 25.3287) was −1.717, the “Fold, Unknown metabolite, Mass 455.2052” value (retention time 28.27806) was −2.509 and the “Fold, Unknown metabolite, Mass 447.2509” value (retention time 29.86415) was 2.103. The “Fold, Unknown metabolite, Mass 444.2789” value (retention time 30.05687) was −1.835, the “Fold, Unknown metabolite, Mass 707.3933” value (retention time 30.43889) was −1.792 and the “Fold, Unknown metabolite, Mass 466.2921” value (retention time 30.46172) was −1.959. The “Fold, Unknown metabolite, Mass 488.305” value (retention time 30.83472) was −2.185, the “Fold, Unknown metabolite, Mass 488.8071” value (retention time 30.88032) was −1.92 and the “Fold, Unknown metabolite, Mass 510.3182” value (retention time 31.20706) was −2.264. For the same compound, the “Fold, Unknown metabolite, Mass 510.8202” value (retention time 31.22083) was −2.045, the “Fold, Unknown metabolite, Mass 523.8187” value (retention time 31.53434) was −2.173 and the “Fold, Unknown metabolite, Mass 591.3789” value (retention time 31.54325) was −1.982. For the same compound, the “Fold, Unknown metabolite, Mass 532.8335” value (retention time 31.58889) was −2.169, the “Fold, Unknown metabolite, Mass 554.3444” value (retention time 31.8519) was −2.37 and the “Fold, Unknown metabolite, Mass 554.8471” value (retention time 31.891) was −2.297. For the same compound, the “Fold, Unknown metabolite, Mass 576.3582” value (retention time 32.15777) was −2.209, the “Fold, Unknown metabolite, Mass 541.3274” value (retention time 32.24719) was −2.123 and the “Fold, Unknown metabolite, Mass 611.871” value (retention time 32.70236) was −2.192. For the same compound, the “Fold, Unknown metabolite, Mass 620.8861” value (retention time 32.73907) was −2.321, the “Fold, Unknown metabolite, Mass 642.397” value (retention time 32.95522) was −2.211 and the “Fold, Unknown metabolite, Mass 677.9101” value (retention time 33.48766) was −2.647. For the same compound, the “Fold, Unknown metabolite, Mass 463.2914” value (retention time 33.5733) was −1.665, the “Fold, Unknown metabolite, Mass 466.615” value (retention time 33.68894) was −3.279 and the “Fold, Unknown metabolite, Mass 774.4767” value (retention time 34.33545) was −2.342. The “Fold, Unknown metabolite, Mass 521.9924” value (retention time 34.35986) was −1.584, the “Fold, Unknown metabolite, Mass 751.4193” value (retention time 35.028) was −1.703 and the “Fold, metabolite Neu5Acalpha2-3Galbeta1-4Glcbeta-Sp, Mass 702.2497” value (retention time 40.84822) was 1.283. For the same compound, the “Fold, Unknown metabolite, Mass 449.2611” value (retention time 44.98056) was −3.471, the “Fold, Unknown metabolite, Mass 467.3804” value (retention time 46.51446) was −2.135 and the “Fold, Unknown metabolite, Mass 518.3914” value (retention time 46.57666) was −2.707. The “Fold, Unknown metabolite, Mass 539.4374” value (retention time 51.52268) was −1.93, the “Fold, Unknown metabolite, Mass 446.0431” value (retention time 54.8719) was −2.221 and the “Fold, Unknown metabolite, Mass 707.4296” value (retention time 56.18269) was −2.434. For the same compound, the “Fold, Unknown metabolite, Mass 611.4952” value (retention time 56.3513) was −1.9811, the “Fold, Unknown metabolite, Mass 765.5211” value (retention time 69.32865) was 1.884 and the “Fold, Unknown metabolite, Mass 482.3062” value (retention time 72.7735) was −2.618.

Source: patent publication US8703483B2, “Reagents and methods for using human embryonic stem cells to evaluate toxicity of pharmaceutical compounds and other chemicals” (Wisconsin Alumni Research Foundation, priority 2006, dated 2014)
